The values that follow are results of earlier work, collected in PMC11249626, “Fluorophore-Labeled Pyrrolones Targeting the Intracellular Allosteric Binding Site of the Chemokine Receptor CCR1” (ACS Pharmacology & Translational Science, 2024).

pKd: −log10 of the molar value. Read-outs that look alike come from different tables or passages of the source.

A word on the pKd: it is −log10 of the Kd, conventionally taken in molar units.

The target of series [1] is T1, CCR2 (Homo sapiens, UniProt P41597).
T1 construct: host or cells: HEK293T, transient
T1 sequence (P41597 1-360 isoform P41597-2): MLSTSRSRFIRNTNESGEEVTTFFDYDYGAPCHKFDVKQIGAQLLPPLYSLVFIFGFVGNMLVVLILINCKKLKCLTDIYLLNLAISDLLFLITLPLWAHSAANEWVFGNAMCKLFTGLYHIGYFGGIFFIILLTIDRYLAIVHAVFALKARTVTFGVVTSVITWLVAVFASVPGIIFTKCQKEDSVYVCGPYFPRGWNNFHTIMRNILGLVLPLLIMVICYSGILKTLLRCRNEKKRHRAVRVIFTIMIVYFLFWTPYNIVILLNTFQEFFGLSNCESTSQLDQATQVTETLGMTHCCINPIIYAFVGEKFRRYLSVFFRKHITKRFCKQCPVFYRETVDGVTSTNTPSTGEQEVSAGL
Details: method as in PMID 35838163. The conditions noted are these: membrane-based setup; cited from earlier work.

In series [2] the target is T1, CCR2. Details: method as in PMID 35838163. The conditions noted are these: cellular setup; cited from earlier work.
For a further series, the target named is T2, CCR1 (Homo sapiens, UniProt P32246).
T2 sequence (P32246 1-355): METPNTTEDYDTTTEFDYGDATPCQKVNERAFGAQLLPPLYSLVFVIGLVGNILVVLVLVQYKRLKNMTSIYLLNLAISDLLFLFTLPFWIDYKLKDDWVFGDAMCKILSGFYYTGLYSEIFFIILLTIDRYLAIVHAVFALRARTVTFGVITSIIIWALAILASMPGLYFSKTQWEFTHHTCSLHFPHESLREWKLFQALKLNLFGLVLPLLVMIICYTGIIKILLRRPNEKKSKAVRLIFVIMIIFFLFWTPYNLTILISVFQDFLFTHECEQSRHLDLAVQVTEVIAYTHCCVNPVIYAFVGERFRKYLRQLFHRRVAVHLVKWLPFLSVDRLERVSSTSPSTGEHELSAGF
Details: Promega pNLF1-C (Nluc) #CCR010TN00; host or cells: HEK293T, transient (PEI); method as in PMID 35838163. The conditions noted are these: cited from earlier work.

With `CN(C)c1ccc2c(-c3cc(C(=O)NCCOCCOCCn4cc(CNC(=O)c5ccc(Oc6ncc(Cl)cc6NS(=O)(=O)c6ccc(Cl)c(C(F)(F)F)c6)cc5)nn4)ccc3C(=O)[O-])c3ccc(=[N+](C)C)cc-3oc2c1` [compound 7], the pKd at CCR2 [1] is 6.58; on CCR2 [2], 6.94. For the same compound, at CCR1, the “KD(CCR1) / binding to CCR1” value is given as “no relevant binding”.
